Results published in patent US9115137B2, “2,3,4,5-tetrahydro-1H-pyrido[4,3-B]indole compounds and methods of use thereof” (priority 2008, dated 2015).

Tests used:
[1] = target: T1, human recombinant serotonin (5-Hydroxytryptamine) 5-HT6 receptor (Homo sapiens, UniProt P50406); test: Serotonin 5-HT6 radioligand binding ([3H]LSD); details: compound at 1 μM; HeLa cells; read-out: Serotonin (1 μM) 5-HT6, percent inhibition of specific binding
T1 construct: expressed in transfected cells; host or cells: human HeLa cells
Description: To evaluate in radioligand binding assays the activity of compounds of the invention, human recombinant serotonin (5-Hydroxytryptamine) 5-HT6 receptor expressed in human HeLa cells (Monsma, F. J. Jr. et al., Mol. Pharmacol. 43:320, 1993) in a modified Tris-HCl buffer (50 mM Tris-HCl, pH 7.4, 150 mM NaCl, 2 mM Ascorbic Acid, 0.001% BSA) was used. Compounds of the invention were incubated with 1.5 nM [3H]Lysergic acid diethylamide (LSD) for 120 minutes at 37° C. Non-specific binding was estimated in the presence of 5 μM Serotonin (5-HT). Receptor proteins were filtered and washed, the filters were then counted to determine [3H]LSD specifically bound. Compounds were screened at 1 μM or lower, using 1% DMSO as vehicle. Biochemical assay results are presented as the percent inhibition of specific binding in Table 7.

[2] = target: T2, human recombinant adrenergic α2B receptor (Homo sapiens, UniProt P18089); test: Adrenergic α2B radioligand binding ([3H]Rauwolscine); details: compound at 1 μM; CHO-K1 cells; read-out: Adrenergic (1 μM) α2B, percent inhibition of specific binding
T2 construct: expressed in transfected cells; host or cells: CHO-K1 cells
T2 sequence (P18089 1-450): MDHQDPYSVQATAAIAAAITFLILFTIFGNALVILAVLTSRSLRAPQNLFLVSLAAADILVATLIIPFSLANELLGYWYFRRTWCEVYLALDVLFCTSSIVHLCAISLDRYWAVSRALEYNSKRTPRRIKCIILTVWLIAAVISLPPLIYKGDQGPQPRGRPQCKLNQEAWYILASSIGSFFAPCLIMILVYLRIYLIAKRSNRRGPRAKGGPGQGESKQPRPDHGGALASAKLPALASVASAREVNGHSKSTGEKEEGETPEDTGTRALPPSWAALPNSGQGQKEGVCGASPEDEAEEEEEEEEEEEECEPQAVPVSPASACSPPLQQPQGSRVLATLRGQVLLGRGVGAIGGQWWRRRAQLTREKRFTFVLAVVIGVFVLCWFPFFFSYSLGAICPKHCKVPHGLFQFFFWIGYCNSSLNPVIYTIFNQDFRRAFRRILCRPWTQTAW
Description: To evaluate in radioligand binding assays the activity of compounds of the invention, human recombinant adrenergic α2B receptor expressed in Chinese hamster ovary (CHO-K1) cells (Uhlen S et al. Eur. J. Pharmacol. 343(1):93, 1998) in a modified Tris-HCl buffer (50 mM Tris-HCl, pH 7.4, 12.5 mM MgCl2, 1 mM EDTA, 0.2% BSA) was used. Compounds of the invention were incubated with 2.5 nM [3H]Rauwolscine for 60 minutes at 25° C. Non-specific binding was estimated in the presence of 10 μM Prozosin. Receptor proteins were filtered and washed, the filters were then counted to determine [^3H]Rauwolscine specifically bound. Compounds were screened at 1 μM or lower, using 1% DMSO as vehicle. Biochemical assay results are presented as the percent inhibition of specific binding in Table 6.

[3] = target: T3, human recombinant dopamine D2L receptor (Homo sapiens, UniProt P14416); test: Dopamine D2L radioligand binding ([3H]Spiperone); details: compound at 1 μM; CHO cells; read-out: Dopamine (1 μM) D2L, percent inhibition of specific binding
T3 construct: expressed in transfected cells; host or cells: CHO cells
Description: To evaluate in radioligand binding assays the activity of compounds of the invention, human recombinant dopamine D2L receptor expressed in Chinese hamster ovary (CHO) cells (Grandy, D. K. et al. Proc. Natl. Acad. Sci. USA. 86:9762, 1989; Hayes, G. et al., Mol. Endocrinol. 6:920, 1992) in a modified Tris-HCl buffer (50 mM Tris-HCl, pH 7.4, 1.4 mM Ascorbic Acid, 0.001% BSA, 150 mM NaCl) was used. Compounds of the invention were incubated with 0.16 nM [^3H]Spiperone for 120 minutes at 25° C. Non-specific binding was estimated in the presence of 10 μM Haloperidol. Receptor proteins were filtered and washed, the filters were then counted to determine [^3H]Spiperone specifically bound. Compounds were screened at 1 μM or lower, using 1% DMSO as vehicle. Biochemical assay results are presented as the percent inhibition of specific binding in Table 6.

[4] = target: T4, human recombinant adrenergic α2A receptor (Homo sapiens, UniProt P08913); test: Adrenergic α2A radioligand binding ([3H]MK-912); details: compound at 1 μM; insect Sf9 cells; read-out: Adrenergic (1 μM) α2A, percent inhibition of specific binding
T4 construct: expressed in transfected cells; host or cells: insect Sf9 cells
T4 sequence (P08913 1-465): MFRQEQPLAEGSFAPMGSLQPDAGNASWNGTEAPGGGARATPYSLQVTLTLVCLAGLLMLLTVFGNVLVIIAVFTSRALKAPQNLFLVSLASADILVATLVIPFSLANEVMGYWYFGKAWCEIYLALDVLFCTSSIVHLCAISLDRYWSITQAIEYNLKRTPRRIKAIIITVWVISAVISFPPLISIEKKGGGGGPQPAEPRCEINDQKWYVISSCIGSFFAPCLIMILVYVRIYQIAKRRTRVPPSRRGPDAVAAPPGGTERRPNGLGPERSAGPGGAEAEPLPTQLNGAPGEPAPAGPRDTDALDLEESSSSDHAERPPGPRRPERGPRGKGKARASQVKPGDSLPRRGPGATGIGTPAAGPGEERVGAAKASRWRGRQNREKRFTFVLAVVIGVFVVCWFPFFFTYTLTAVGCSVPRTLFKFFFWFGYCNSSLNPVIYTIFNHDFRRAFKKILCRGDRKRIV
Description: To evaluate in radioligand binding assays the activity of compounds of the invention, human recombinant adrenergic α2A receptor expressed in insect Sf9 cells (Uhlen S et al. J Pharmacol Exp Ther. 271:1558, 1994) in a modified Tris-HCl buffer (50 mM Tris-HCl, pH 7.4, 12.5 mM MgCl2, 2 mM EDTA) was used. Compounds of invention were incubated with 1 nM [^3H]MK-912 for 60 minutes at 25° C. MK912 is (2S-trans)-1,3,4,5′,6,6′,7,12b-octahydro-1′,3′-dimethyl-spiro[2H-benzofuro[2,3-a]quinolizine-2,4′(1′H)-pyrimidin]-2′(3′H)-one hydrochloride Non-specific binding was estimated in the presence of 10 μM WB-4101 (2-(2,6-Dimethoxyphenoxyethyl)aminomethyl-1,4-benzodioxane hydrochloride). Receptor proteins were filtered and washed, the filters were then counted to determine [^3H]MK-912 specifically bound. Compounds were screened at 1 μM or lower, using 1% DMSO as vehicle. Biochemical assay results are presented as the percent inhibition of specific binding in Table 6.

T3 sequence (P14416 whole entry): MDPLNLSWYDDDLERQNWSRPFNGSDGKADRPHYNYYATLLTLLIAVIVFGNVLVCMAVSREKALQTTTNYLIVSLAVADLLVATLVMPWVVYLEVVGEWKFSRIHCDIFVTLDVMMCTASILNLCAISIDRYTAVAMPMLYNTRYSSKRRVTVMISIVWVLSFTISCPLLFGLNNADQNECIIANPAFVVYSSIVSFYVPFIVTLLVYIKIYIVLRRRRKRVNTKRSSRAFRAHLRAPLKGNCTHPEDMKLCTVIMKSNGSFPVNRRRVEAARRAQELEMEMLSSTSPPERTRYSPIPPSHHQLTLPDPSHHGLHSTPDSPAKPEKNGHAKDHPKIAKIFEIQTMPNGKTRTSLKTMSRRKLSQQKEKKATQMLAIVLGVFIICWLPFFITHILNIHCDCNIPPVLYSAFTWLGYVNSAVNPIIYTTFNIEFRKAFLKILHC
T1 sequence (P50406 whole entry): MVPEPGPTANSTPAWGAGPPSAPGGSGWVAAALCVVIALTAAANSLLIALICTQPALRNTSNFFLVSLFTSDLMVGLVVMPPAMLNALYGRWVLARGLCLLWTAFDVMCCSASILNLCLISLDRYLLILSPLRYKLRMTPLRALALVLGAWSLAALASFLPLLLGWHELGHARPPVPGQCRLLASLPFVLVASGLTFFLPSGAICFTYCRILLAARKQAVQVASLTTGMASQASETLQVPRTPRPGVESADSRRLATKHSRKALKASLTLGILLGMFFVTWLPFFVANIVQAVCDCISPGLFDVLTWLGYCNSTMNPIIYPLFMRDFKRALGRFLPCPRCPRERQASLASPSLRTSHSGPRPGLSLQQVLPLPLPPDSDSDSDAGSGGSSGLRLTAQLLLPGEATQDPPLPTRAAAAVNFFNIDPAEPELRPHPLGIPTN

| SMILES | inhibition at 1 µM [1] | inhibition at 1 µM [2] | inhibition at 1 µM [3] | inhibition at 1 µM [4] |
| --- | --- | --- | --- | --- |
| CN1CCc2c(c3cc(Cl)ccc3n2CCC(=O)OCc2ccccc2)C1 [Compound 19, benzyl 3-(8-chloro-1,2,3,4-tetrahydro-2-methylpyrido[4,3-b]indol-5-yl)propanoate] | 100% | 106% | 31% | 86% |
| CN1CCc2c(c3cc(Cl)ccc3n2CCC(=O)OCC2CCCCC2)C1 [Compound 20, cyclohexylmethyl 3-(8-chloro-1,2,3,4-tetrahydro-2-methylpyrido[4,3-b]indol-5-yl)propanoate] | 93% | 103% | 19% | 95% |
| CN1CCc2c(c3cc(Cl)ccc3n2CCC(=O)OC2CCCC2)C1 [Compound 21, cyclopentyl 3-(8-chloro-1,2,3,4-tetrahydro-2-methylpyrido[4,3-b]indol-5-yl)propanoate] | 100% | 103% | 35% | 95% |
| CCNC(=O)Cn1c2c(c3cc(C)ccc31)CN(C)CC2 [Compound 22, N-ethyl-2-(1,2,3,4-tetrahydro-2,8-dimethylpyrido[4,3-b]indol-5-yl)acetamide] | 27% | 58% | -2% | 40% |
| Cc1ccc2c(c1)c1c(n2CC(=O)NC(C)C)CCN(C)C1 [Compound 23, 2-(1,2,3,4-tetrahydro-2,8-dimethylpyrido[4,3-b]indol-5-yl)-N-isopropylacetamide] | 3% | 18% | 5% | 12% |
| Cc1ccc2c(c1)c1c(n2CC(=O)NC(C)(C)C)CCN(C)C1 [Compound 24, N-tert-butyl-2-(1,2,3,4-tetrahydro-2,8-dimethylpyrido[4,3-b]indol-5-yl)acetamide] | 6% | 13% | 3% | 10% |
| Cc1ccc2c(c1)c1c(n2CC(=O)NCc2ccccc2)CCN(C)C1 [Compound 25, N-benzyl-2-(1,2,3,4-tetrahydro-2,8-dimethylpyrido[4,3-b]indol-5-yl)acetamide] | 58% | 38% | -3% | 2% |
| Cc1ccc2c(c1)c1c(n2CC(=O)NCC2CCCCC2)CCN(C)C1 [Compound 26, N-(cyclohexylmethyl)-2-(1,2,3,4-tetrahydro-2,8-dimethylpyrido[4,3-b]indol-5-yl)acetamide] | 34% | 45% | -4% | 22% |
| CN1CCc2c(c3cc(Cl)ccc3n2CC(=O)NC2CCCC2)C1 [Compound 27, 2-(8-chloro-1,2,3,4-tetrahydro-2-methylpyrido[4,3-b]indol-5-yl)-N-cyclopentylacetamide] | 13% | 35% | -2% | 12% |
| Cc1ccc2c(c1)c1c(n2CCC(=O)NC(C)(C)C)CCN(C)C1 [Compound 28] | 47% | 85% | -1% | 44% |
| Cc1ccc2c(c1)c1c(n2CCC(=O)Nc2ccccc2)CCN(C)C1 [Compound 29] | 43% | 79% | 2% | 78% |
| Cc1ccc2c(c1)c1c(n2CCC(=O)NCC2CCCCC2)CCN(C)C1 [Compound 30, N-(cyclohexylmethyl)-3-(1,2,3,4-tetrahydro-2,8-dimethylpyrido[4,3-b]indol-5-yl)propanamide] | 18% | 104% | 7% | 74% |
| CN1CCc2c(c3cc(Cl)ccc3n2CCC(=O)NC2CCCC2)C1 [Compound 31, 3-(8-chloro-1,2,3,4-tetrahydro-2-methylpyrido[4,3-b]indol-5-yl)-N-cyclopentylpropanamide] | 34% | 91% | 9% | 37% |
| CN1CCc2c(c3cc(Cl)ccc3n2CC(N)=O)C1 [Compound 45, 2-(8-chloro-1,2,3,4-tetrahydro-2-methylpyrido[4,3-b]indol-5-yl)acetamide] | 5% | 18% | 7% | 16% |
| Cc1ccc2c(c1)c1c(n2CCC(N)=O)CCN(C)C1 [Compound 46, 3-(1,2,3,4-tetrahydro-2,8-dimethylpyrido[4,3-b]indol-5-yl)propanamide] | 11% | 46% | 4% | 44% |
| Cc1ccc2c(c1)c1c(n2CCC(=O)Nc2ccc(F)cc2)CCN(C)C1 [Compound 47, N-(4-fluorophenyl)-3-(1,2,3,4-tetrahydro-2,8-dimethylpyrido[4,3-b]indol-5-yl)propanamide] | 63% | 96% | -3% | 73% |
| CN1CCc2c(c3cc(Cl)ccc3n2CC(=O)N(C)C)C1 [Compound 48, 2-(8-chloro-1,2,3,4-tetrahydro-2-methylpyrido[4,3-b]indol-5-yl)-N,N-dimethylacetamide] | 12% | 13% | -6% | 20% |
